Legend:
Assay type in all cases: in vivo
[1] = test system: Blumeria graminis f. sp. tritici; experiment: Test C: wheat powdery mildew, preventive spray on wheat seedlings; settings: 50 ppm, rated after 8 days, 100 = 100% disease control, 0 = no control
Procedure, shortened: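 Wheat seedlings got a run-off spray of test suspension (ppm in acetone/water 50/50, 250 ppm PEG400, acetone 3% of volume), then spore-dust inoculation with wheat powdery mildew one day later. After 8 days' growth-chamber incubation at 20° C, disease control scored visually on a 0–100 scale versus untreated controls.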

Alternaria solani = experiment: Test F: tomato early blight, preventive spray on tomato seedlings; settings: 50 ppm, 100 = 100% disease control, 0 = no control
Procedure, shortened: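 Preventive test: one day after seedlings were sprayed to run-off with ppm-level suspensions (acetone/water 50/50, 250 ppm PEG400), A. solani spore inoculation followed. Incubation was 48 h at 27° C in saturated air plus 3 days at 20° C; disease control was scored visually versus controls (100 = full control).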

Phakopsora pachyrhizi = experiment: Test D: Asian soybean rust, preventive spray on soybean seedlings; settings: 50 ppm, 100 = 100% disease control, 0 = no control
Procedure, shortened: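 Soybean seedlings sprayed to run-off with compound suspension (ppm, in 50/50 acetone/water with 250 ppm PEG400), inoculated next day with P. pachyrhizi spores, held 24 h saturated at 22°C then 8 days at 22°C. Visual rating 0-100% disease control relative to controls.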

Botrytis cinerea = experiment: Test E: tomato Botrytis, preventive spray on tomato seedlings; settings: 50 ppm, 100 = 100% disease control, 0 = no control
Procedure, shortened: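 Preventive test: spore inoculation one day after run-off spraying of compound suspension (3% acetone, acetone/water 50/50, 250 ppm PEG400). Incubation 20 °C saturated humidity for 48 h, followed by 3 days at 24 °C growth chamber; disease control scored visually, 100 = full control.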

Septoria tritici = experiment: Test A: wheat leaf blotch, preventive spray on wheat seedlings; settings: 50 ppm, 100 = 100% disease control, 0 = no control relative to controls
Procedure, shortened: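 Preventive test: seedlings sprayed to run-off one day before Septoria tritici spore inoculation, with ppm doses in acetone/water containing 250 ppm PEG400. After 48 h at 24 °C in saturated air and 17 days at 20 °C, plants were scored 0–100 for disease control versus untreated controls.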

[2] = test system: Puccinia recondita f. sp. tritici; experiment: Test B: wheat leaf rust, preventive spray on wheat seedlings; settings: 50 ppm, 100 = 100% disease control, 0 = no control relative to controls
Procedure, shortened: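 Wheat seedlings got a run-off spray (ppm, acetone/water 50/50, 250 ppm PEG400) and one day later a spore inoculum. After 24 h at 20° C. in saturated air and 7 days at 20° C., disease was scored as % control relative to controls (100 = full control).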

## CCc1nn(C)c(Nc2c(Cl)cccc2[N+](=O)[O-])c1-c1ccc(F)cc1F [Compound 17]
[1]
  Test C disease control rating (wheat powdery mildew): 94%
Alternaria solani
  Test F disease control rating (tomato early blight): 9%
Phakopsora pachyrhizi
  Test D disease control rating (Asian soybean rust): 0%
Botrytis cinerea
  Test E disease control rating (tomato Botrytis): 99%
Septoria tritici
  Test A disease control rating (wheat leaf blotch): 100%
[2]
  Test B disease control rating (wheat leaf rust): 92%

## Cc1nn(C)c(Nc2ccc(Br)cc2[N+](=O)[O-])c1-c1ccc(F)cc1Br [Compound 21]
[1]
  Test C disease control rating (wheat powdery mildew): 84%
Alternaria solani
  Test F disease control rating (tomato early blight): 17%
Phakopsora pachyrhizi
  Test D disease control rating (Asian soybean rust): 0%
Botrytis cinerea
  Test E disease control rating (tomato Botrytis): 95%
Septoria tritici
  Test A disease control rating (wheat leaf blotch): 100%
[2]
  Test B disease control rating (wheat leaf rust): 86%

## Cc1nn(C)c(Nc2ccc(Cl)cc2[N+](=O)[O-])c1-c1ccc(F)cc1F [Compound 78]
[1]
  Test C disease control rating (wheat powdery mildew): 95%
Alternaria solani
  Test F disease control rating (tomato early blight): 0%
Phakopsora pachyrhizi
  Test D disease control rating (Asian soybean rust): 0%
Botrytis cinerea
  Test E disease control rating (tomato Botrytis): 68%
Septoria tritici
  Test A disease control rating (wheat leaf blotch): 100%
[2]
  Test B disease control rating (wheat leaf rust): 89%

## CCc1nn(C)c(Nc2c(Cl)cc(Br)cc2[N+](=O)[O-])c1-c1ccc(F)cc1Cl [Compound 128]
[1]
  Test C disease control rating (wheat powdery mildew): 96%
Alternaria solani
  Test F disease control rating (tomato early blight): 33%
Phakopsora pachyrhizi
  Test D disease control rating (Asian soybean rust): 31%
Botrytis cinerea
  Test E disease control rating (tomato Botrytis): 99%
Septoria tritici
  Test A disease control rating (wheat leaf blotch): 100%
[2]
  Test B disease control rating (wheat leaf rust): 98%

## Cc1nn(C)c(Nc2c(Br)cccc2[N+](=O)[O-])c1-c1ccc(F)cc1Cl [Compound 110]
[1]
  Test C disease control rating (wheat powdery mildew): 56%
Alternaria solani
  Test F disease control rating (tomato early blight): 0%
Phakopsora pachyrhizi
  Test D disease control rating (Asian soybean rust): 73%
Botrytis cinerea
  Test E disease control rating (tomato Botrytis): 99%
Septoria tritici
  Test A disease control rating (wheat leaf blotch): 100%
[2]
  Test B disease control rating (wheat leaf rust): 98%

Reference: patent US12398107B2, “Fungicidal nitroanilino substituted pyrazoles” (FMC Corporation, priority 2018, dated 2025)
